From patent US20160090351A1, “INHIBITORS OF DEUBIQUITINATING PROTEASES” (BRANDEIS UNIVERSITY, priority 2013, published 2016)
“Also recorded” adds a separate entry of the source. Each block holds one compound with its values, some of them ahead of it.

What was measured:
[1] = molecular target: 20S proteasome (Homo sapiens, UniProt P28074); assay: proteasome activity (purified 20S proteasome; GFP-Ub (G76V) in Cos-1 cells); type: biochemical; details: 20S proteasome 30 minutes, Suc-Leu-Tyr-AMC 100 μM; Cos-1 GFP-Ub (G76V) 8 hours
Protocol: A. Purified 20S proteasome was treated with compound for 30 minutes prior to addition of substrate (Suc-Leu-Tyr-AMC, 100 μM). B. Cos-1 cells expressing with GFP-Ub (G76V) were treated with compound for 8 hours, then the level of GFP was measured by flow cytometry.

[2] = tested on: K562 cells; assay: apoptosis, cell cycle and viability of K562 cells by flow cytometry; type: cell-based, human; details: annexin V-FITC / propidium iodide, 24 hours (TU50 also 8 hours)
Protocol: (§1) K562 cells are from a myelogenous leukemia line that expresses Bcr-Abl kinase. A. K562 cells were treated with TU50 for 24 hours after which time the cells were treated with annexin V-FITC and propidium iodide. Cells were then analyzed by flow cytometry. Cells showing only annexin V-FITC were considered apoptotic whereas cells showing both annexin V-FITC and propidium iodide were considered necrotic. N=2. All points show a significant difference to the vehicle (DMSO) with p<0.05. […] All points show a significant difference to vehicle (DMSO) with p<0.02. C. Same as A, but the incubation period was 8 hours. N>2. All points show a significant difference to DMSO with p<0.02. D, K562 cells were treated with TU50 for 4 hours. Samples were analyzed by SDS-PAGE and immunoblotting with anti-Bcr-Abl antibody. E. Quantitation of blot in D. The signal for tubulin was used to normalize the Bcr-Abl signal. N=3.
(§2) FIG. 40 depicts data showing that diphenyl carbonates induce the degradation of Bcr-Abl kinase. A. K562 cells were treated with C17 for 24 h (1 dose) then analyzed for Bcr-Abl expression by western blot with anti-Abl antibody. B. Quantitation of blots in A normalized to actin. C. K562 cells were treated with C17 for 24 h then the amount of cells in G1 and apoptosis were recorded (N=3). D. K562 were treated with C15 for 4 h then analyzed for Bcr-Abl expression using western blot. E. Quantitation of Bcr-Abl from D normalized to tubulin (N=4). F. Same K562 lysates were separately analyzed for K63-linked ubiquitin. G. Quantitation of blots in F (N=4). Differences between all bars is significant p<0.01). H. K562 cells were treated with C15 for 24 h after which time cells were fixed in ethanol, treated with propodium iodide/RNAse then analyzed by FACS. Viability was calculated using forward and side scatter. I. Same experiment as H but red fluorescence was measured to determine DNA content

[3] = tested on: Bcr-Abl kinase; assay: Bcr-Abl levels in K562 cells by immunoblotting; type: cell-based, human; details: TU50 4 hours
Protocol: as §1
FIG. 34 depicts data showing that diphenylcarbonates cause the accumulation of HMW-Ub and reduce the levels of Bcr-Abl in K562 cells. A. K562 cells were treated with diphenyl carbonates (50 μM) for 2 h and then assayed for the accumulation of K48-linked Ub. B. As in A, but Bcr-Abl was measured by immunoblotting with anti-Abl antibodies. C. K562 cells were treated with C17 (50 μM) in the presence and absence of bortezomib (6 μM) for 4 hours and Bcr-Abl was measured by immunblotting with anti-Abl antibodies. D. Quantitation of blot in C. Significance: DMSO relative to C17 and bortezomib p=0.002; DMSO relative to C17, p=0.03. E. K562 cells were treated with C15 for 4 hours then analyzed for SMAD4 monoubiquitination by western blot. F. Quantitation of blots in A. (N=3). See also FIG. 40.
as §2
Transfected cells were harvested 1.5 days post transfection. […] Typically clarified lysate was analyzed.

[4] = tested on: B16/F10 cells; assay: proliferation and cell cycle of B16/F10 cells; type: cell-based, mouse; details: 72 h, flow cytometry
Protocol: A. MCF7 cells were treated with C17 for 4 h and Mdm2 levels were measured. B. As in A, P53 measured. C. As in A, P21 measured. D. MCF7 and B16/F10 cells were treated with C17 every 24 hours. After 72 hours, the number of viable cells was measured by Alamar Blue®.
MCF7 cells were dosed every 2 hours with the indicated concentration of C15. After 6 hours, cells were lysed by freeze thaw and then sonicated in 0.5% SDS. A. Total lysates were blotted for K48-linked ubiquitin and actin. B. Normalized K48-linked ubiquitin signal was plotted as a function of concentration of C15 (N=2). C. […] Doxorubicin (Dox) is a DNA damaging agent that serves as a positive control for the induction of P53. D. Quantitation of P53 levels in C relative to actin (N=2). […] MCF7 cells were treated under the stated conditions then analyzed for cell cycle. F. DMSO treated cells. G. Cells treated with C17 (25 μM), dosed every 24 hours. H. Cells treated with C17 (50 μM), dosed every 24 hours. […] These cells were left for 72 h (single dose) after which time the total number of viable cells was analyzed using Alamar Blue®. All data are n≧4 showing mean+/−s.e.m. K. MCF7 cells were plated with C17 for 24 hours after which time the total number of viable cells was measured by Alamar Blue®. L. B16/F10 cells were treated with DMSO, C17 or P005091 for 72 h. […] After this time, cells were analyzed by flow cytometry.
All cells were grown at 37° C. in a 5% CO2 humidified atmosphere in DMEM supplemented with 10% heat inactivated FBS, 1× glutamax, and 1× penicillin/streptomycin. […] Typically clarified lysate was analyzed. […] Lysates were centrifuged (20 000 rpm, microcentrifuge, Eppendorf 5417 C) concentration was measured, then 0.1% SDS was added and lysates were sonicated for a total of 30 s (in 10 s bursts). Protein concentration was determined using Bradford assay with IgG as standard and analyzed by western blot as delineated below {[9 μg total protein for K48-linked ubiquitin (1:9000 antibody dilution), SMAD4 (1:500) or PARP (1:1000)]; [30-40 μg was loaded for K63-linked ubiquitin (1:1500), Mdm2 (1:1000) or Abl (1:1500). […]

[5] = tested on: ubiquitin-proteasome system; assay: GFP-G76V-Ub assay in HEK 293T cells; type: cell-based, human; details: diphenyl carbonates 100 μM, bortezomib 20 μM, G5 2 μM
Protocol: FIG. 32 depicts data showing that diphenyl carbonates inhibit DUBs in HEK 293T cells. A. Viability of HEK 293T cells assessed by the propidium iodide exclusion method: diphenyl carbonate (100 μM), bortezomib (V, 20 μM) and G5 (2 μM). N≧3, mean+/−s.d. B. HEK 293T cells were treated with the stated compounds (50 μM) for 2 h and then assayed for the accumulation of K48-linked Ub species. C. As in A, but K63-linked Ub was assayed. D. HEK 293T cells were treated with C14, C15, C17, C18 (100 μM) or DMSO for 2 hours, then harvested, lysed and treated with HA-Ub-VS. After 30 min, lysates were analyzed by SDS-PAGE and probed for HA, tubulin and actin. An intervening lane was removed for clarity. E. HEK 293T cells expressing Ub-G76V-GFP were treated with diphenyl carbonates (100 μM), bortezomib (20 μM) and G5 (2 μM). […] N>3, Mean+/−s.d. See also FIG. 39.
FACS was carried out on a […] FACS-Calibur. For HEK 293T and K562, cells were resuspended by repeated pipetting/agitation of the incubation media, followed by dilution into PBS. For Cos-1, MCF-7, and CHO cells, media was removed and trypsin was added. Harvested cells were placed in FACS buffer (0.5% FBS in PBS with 3 μg/mL propidium iodide) 30 s prior to analysis. All data were analyzed using FlowJo V10, from TreeStar (Ashland, Oreg.). Approximately 2500 cells were sorted per replicate. Cells were sorted by propidium iodide dye exclusion to give a “viable population”. GFP positive cells within this group were identified relative to untransfected controls. Then the geometric mean of the whole GFP positive population within the viable population was calculated. Typical transfection efficiencies for G76V ubiquitin were 60-70% for both Cos-1 and HEK 293T and 25-40% for CHO cells, based on GFP positive cells.
The activity of the diphenylcarbonates in the GFP-G76V-Ub assay, which monitors flux through the ubiquitin-proteasome system, was also investigated. The G76V mutation creates an unstable Ub fusion protein that is degraded in a proteasome dependent process. GFP fluorescence increased when HEK 293T cells expressing GFP-G76V-Ub were treated with the proteasome inhibitor bortezomib and decreased upon treatment with G5 (FIG. 39). This decrease has been attributed to increased flux through the ubiquitin-proteasome system triggered by the accumulation of HMW-Ub. […] Perhaps the inability of the diphenylcarbonates to inhibit UCH-L1/3 accounts for the stability of GFP-G76V-Ub. This selectivity might also explain the low cytoxicity of these compounds relative to G5.

[6] = tested on: DUBs; assay: decomposition of high molecular weight ubiquitinated proteins (HMW-Ub) in lysates of HEK 293T cells expressing HA-Ub; type: biochemical, human; details: HEK 293T HA-Ub lysates, 37° C.
Protocol: FIG. 30 depicts data showing that diphenylcarbonates inhibit the decomposition of high molecular weight ubiquitinated proteins (HMW-Ub). Lysates were prepared from HEK 293T cells expressing HA-ubiquitin. Samples were incubated at 37° C. and reactions were quenched by the addition of reducing Laemmli buffer. HMW-Ub was assessed by SDS-PAGE and immunoblotting with anti-HA antibody. A. Representative immunoblots measuring the decomposition of HMW-Ub in lysates treated with either the DMSO vehicle, G5 (10 μM) or C4 (500 μM). B. Plot of the decomposition of HMW-Ub in lysates treated with DMSO and C4 (500 μM) (N=2; error bars denote range). C. Inhibition of HMW-Ub decomposition by diphenylcarbonates. Lysates were treated with diphenylcarbonates (50 μM). “-” denotes no treatment; D, 1% DMSO vehicle; IU1, an USP14-specific inhibitor; Bort, bortezomib, a proteasome inhibitor. D. Representative decomposition of HMW-Ub after 2 h incubation in the presence of varying concentrations of C4. See also FIG. 36. E. Quantitation of D. The values of EC50 reported in FIG. 29B are the average and S.E.M. of at least 3 independent experiments. See also FIG. 37 and FIG. 38.
Cells overexpressing HA-ubiquitin were prepared as above. Pellets were typically stored at −80° C. until required, at which time they were thawed on ice. Cell lysis was performed in lysis buffer using a Dounce homogenizer (10 strokes, with grinding, on ice: typical yield approx. 2-5 mg protein per transfected T75 flask for HEK 293T cells; 1-3 mg protein from a T75 flask for Cos-1). Crude lysate was centrifuged at 17000 g for 10 min at 4° C., after which time the concentration of the lysate was normalized to 1 mg/mL. The lysate was aliquoted into PCR strip tubes (typical volumes 75-50 μL) and compound in DMSO was added to this to give a final concentration of DMSO of 1%. Tubes were briefly centrifuged, overlaid with Chill-out wax (50 μL) and placed in a PCR machine at 37° C. with heated lid set to 37° C. Aliquots (9 μL) were removed at the stated times and immediately quenched in (2× final concentration) reducing (dithiothreitol) loading buffer and frozen (−19° C.) till required. Western blot analysis was carried out using standard methods. Samples were resolved by SDS-PAGE, transferred to PVDF [(0.45 μm) (Towbin buffer, tank apparatus, 90 V 1 hour, then overnight at 30 V, 4° C.)] then blocked in 15% milk in TBS-T HS (100 mM Tris HCl, pH 7.6, 500 mM NaCl, 0.5% […]) for at least 2 hours at RT. Afterward, membrane was washed in TBS-T HS then probed with anti HA-HRP (1:18000) for 1.33 hours at RT. Membrane was washed 3 times in TBS-T HS (15 mins) then once in TBS (15 mins) and exposed to ECL II and visualized using blue biofilm. […] When required, membranes were stripped in 100 mM glycine pH 4, 500 mM NaCl, 1% SDS, 5 mM BME, at 55° C. for 19 mins, then analyzed.
Lysates were prepared from HEK 293T cells expressing N-terminally HA-tagged ubiquitin (HA-Ub) to facilitate the observation of ubiquitinated proteins. In the absence of a DUB inhibitor, the HMW-Ub pool decomposed with a half-life of 34 min (FIG. 30A,B). […] Similar results were obtained in lysates prepared from Cos-1 cells expressing HA-Ub.

[7] = tested on: G76V ubiquitin-GFP fusion protein; assay: G76V ubiquitin-GFP fusion protein fluorescence, Example 5; type: cell-based; details: Example 5, FIG. 9 bottom panel
Protocol: Cells treated with 4 (100 μM; as defined in FIG. 3) show PARP cleavage that indicates caspases are active. The fluorescence of G76V ubiquitin-GFP fusion protein increases in the presence of inhibitor 4 (as defined in FIG. 3), as expected if degradation […] due to inhibition of DUBs. In contrast, GFP fluorescence […] when the proteasome is inhibited by bortezomib.

[8] = molecular target: T1, USP9x (Homo sapiens, UniProt Q93008); assay: HA-Ub-VS labeling in K562 cell lysates; type: biochemical; details: compound 40 minutes, then HA-Ub-VS (1.5 μM) 20 minutes
T1 construct: endogenous in cells; host or cells: K562 cell lysate
Protocol: HA-Ub-VS is commonly used to label DUBs in cell lysates. […] A. and B. K562 cell lysates were treated with compound for 40 minutes prior to activity labeling with HA-Ub-VS (1.5 μM) for 20 minutes. Samples were analyzed by SDS-PAGE and immunoblotting with anti-HA antibody. C. […] Values were derived by fitting to the in Prism.

[9] = molecular target: cathepsin C (Homo sapiens, UniProt P53634); assay: cathepsin C inhibition; type: biochemical; details: compounds numbered as in FIG. 5
[10] = tested on: desumoylation; assay: stabilization of SUMOylated proteins in lysates from HA-SUMO transfected HEK 293T cells; type: biochemical, human; details: G5 5 μM, C4 300 μM
Protocol: Untransfected HEK 293T cell lysates were treated with the vehicle alone (DMSO at 1%) or compound and incubated at 37° C. for 2 h. Samples were analyzed by SDS-PAGE and immunoblotting with antibody recognizing K48-linked ubiquitin. D=DMSO; G5=G5 isopeptidase inhibitor 1. A-D show titrations of different compounds (see FIG. 29B for structures). E-H Lysates were prepared from HEK 293T cells expressing HA-SUMO and treated with vehicle alone (DMSO, 1%) or compound. Samples were incubated for the appropriate time and analyzed by SDS-PAGE and immunoblotting with anti-HA antibody. Representative experiments are shown. E. Vehicle control. F. G5, 5 μM; G. C4, 300 μM. H. Quantification of blots as in E-G, N=2 average and range. I-J. Lysates were prepared from HEK 293T cells expressing HA-Ub and treated with either vehicle alone (1% DMSO) or compound at 37° C. for 3 h. Samples were analyzed by SDS-PAGE and immunoblotting with anti-HA antibody. I. A representative experiment. J. Quantitation of experiments in I (N=2 average and range shown). […]
Similar effects were observed when the endogenous K48-linked ubiquitin pool was monitored in lysates prepared from wild-type HEK 293T cells (FIG. 37A-D). Unfortunately, K63-linked ubiquitin could not be detected in these lysates. The ability of C4 to stabilize SUMOylated proteins in lysates from HA-SUMO transfected HEK 293T cells was also assessed.

T1 sequence (Q93008 whole entry): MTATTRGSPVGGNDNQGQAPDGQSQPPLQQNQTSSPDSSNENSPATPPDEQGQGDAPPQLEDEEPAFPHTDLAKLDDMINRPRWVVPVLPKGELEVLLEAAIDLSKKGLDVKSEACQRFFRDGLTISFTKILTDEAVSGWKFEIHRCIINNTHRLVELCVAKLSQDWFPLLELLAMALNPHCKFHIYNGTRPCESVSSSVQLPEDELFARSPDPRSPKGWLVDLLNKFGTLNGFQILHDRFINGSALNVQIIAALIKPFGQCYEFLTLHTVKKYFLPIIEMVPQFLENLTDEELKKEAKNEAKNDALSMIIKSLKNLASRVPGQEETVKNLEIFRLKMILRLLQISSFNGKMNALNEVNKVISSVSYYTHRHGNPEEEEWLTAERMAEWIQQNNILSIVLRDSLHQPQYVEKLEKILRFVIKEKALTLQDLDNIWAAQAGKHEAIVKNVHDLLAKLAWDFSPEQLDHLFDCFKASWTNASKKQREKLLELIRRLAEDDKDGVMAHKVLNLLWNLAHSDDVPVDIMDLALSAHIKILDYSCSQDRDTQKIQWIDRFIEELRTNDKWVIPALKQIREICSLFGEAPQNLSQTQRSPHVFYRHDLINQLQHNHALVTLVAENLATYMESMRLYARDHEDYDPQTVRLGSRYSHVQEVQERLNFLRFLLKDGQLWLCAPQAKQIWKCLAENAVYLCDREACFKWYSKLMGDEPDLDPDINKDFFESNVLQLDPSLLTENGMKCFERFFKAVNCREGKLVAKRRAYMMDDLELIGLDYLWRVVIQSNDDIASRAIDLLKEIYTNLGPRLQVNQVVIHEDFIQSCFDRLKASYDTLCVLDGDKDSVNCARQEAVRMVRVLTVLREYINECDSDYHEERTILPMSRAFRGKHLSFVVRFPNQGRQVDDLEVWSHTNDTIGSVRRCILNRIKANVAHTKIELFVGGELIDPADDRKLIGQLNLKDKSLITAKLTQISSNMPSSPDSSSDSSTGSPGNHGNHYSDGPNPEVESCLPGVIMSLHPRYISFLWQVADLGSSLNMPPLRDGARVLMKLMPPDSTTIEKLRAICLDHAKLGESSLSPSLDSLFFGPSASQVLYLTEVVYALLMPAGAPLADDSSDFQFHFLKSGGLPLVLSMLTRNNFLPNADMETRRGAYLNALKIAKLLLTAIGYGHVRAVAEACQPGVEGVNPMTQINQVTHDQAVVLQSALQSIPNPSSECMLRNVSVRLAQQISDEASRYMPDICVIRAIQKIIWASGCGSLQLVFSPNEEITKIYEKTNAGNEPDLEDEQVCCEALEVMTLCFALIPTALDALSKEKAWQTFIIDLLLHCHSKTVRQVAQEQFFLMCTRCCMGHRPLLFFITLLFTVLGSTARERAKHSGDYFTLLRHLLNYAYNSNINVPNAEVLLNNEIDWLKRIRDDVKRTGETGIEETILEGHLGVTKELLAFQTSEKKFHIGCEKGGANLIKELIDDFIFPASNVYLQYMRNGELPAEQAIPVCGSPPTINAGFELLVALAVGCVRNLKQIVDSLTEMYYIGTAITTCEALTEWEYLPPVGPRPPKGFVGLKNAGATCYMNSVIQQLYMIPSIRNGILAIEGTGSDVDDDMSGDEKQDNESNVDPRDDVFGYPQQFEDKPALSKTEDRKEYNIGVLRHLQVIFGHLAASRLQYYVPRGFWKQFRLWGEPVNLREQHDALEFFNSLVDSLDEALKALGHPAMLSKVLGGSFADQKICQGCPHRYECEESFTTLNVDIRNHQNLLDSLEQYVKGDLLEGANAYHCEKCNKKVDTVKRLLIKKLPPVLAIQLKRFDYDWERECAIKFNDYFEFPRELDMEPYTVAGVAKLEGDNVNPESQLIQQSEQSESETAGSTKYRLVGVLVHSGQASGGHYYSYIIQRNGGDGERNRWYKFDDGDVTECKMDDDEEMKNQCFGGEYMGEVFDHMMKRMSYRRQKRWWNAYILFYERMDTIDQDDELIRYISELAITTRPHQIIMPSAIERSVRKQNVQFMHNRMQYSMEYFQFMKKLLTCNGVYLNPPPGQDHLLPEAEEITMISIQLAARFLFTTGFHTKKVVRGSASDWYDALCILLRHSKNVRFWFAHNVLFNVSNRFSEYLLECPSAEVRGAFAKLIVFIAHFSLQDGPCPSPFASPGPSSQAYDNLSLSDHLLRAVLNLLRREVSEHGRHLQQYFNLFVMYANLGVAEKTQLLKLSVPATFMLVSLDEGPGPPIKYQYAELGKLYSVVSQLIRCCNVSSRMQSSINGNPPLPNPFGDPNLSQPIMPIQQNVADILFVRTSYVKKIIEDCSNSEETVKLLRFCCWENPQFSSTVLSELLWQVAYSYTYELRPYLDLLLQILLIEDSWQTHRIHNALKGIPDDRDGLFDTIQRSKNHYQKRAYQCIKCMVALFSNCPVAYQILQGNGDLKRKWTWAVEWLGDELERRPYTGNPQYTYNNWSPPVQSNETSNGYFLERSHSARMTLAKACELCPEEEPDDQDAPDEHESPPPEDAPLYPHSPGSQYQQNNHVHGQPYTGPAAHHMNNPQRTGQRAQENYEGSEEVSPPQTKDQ
Chain of cathepsin C (P53634 25-463, species assumed): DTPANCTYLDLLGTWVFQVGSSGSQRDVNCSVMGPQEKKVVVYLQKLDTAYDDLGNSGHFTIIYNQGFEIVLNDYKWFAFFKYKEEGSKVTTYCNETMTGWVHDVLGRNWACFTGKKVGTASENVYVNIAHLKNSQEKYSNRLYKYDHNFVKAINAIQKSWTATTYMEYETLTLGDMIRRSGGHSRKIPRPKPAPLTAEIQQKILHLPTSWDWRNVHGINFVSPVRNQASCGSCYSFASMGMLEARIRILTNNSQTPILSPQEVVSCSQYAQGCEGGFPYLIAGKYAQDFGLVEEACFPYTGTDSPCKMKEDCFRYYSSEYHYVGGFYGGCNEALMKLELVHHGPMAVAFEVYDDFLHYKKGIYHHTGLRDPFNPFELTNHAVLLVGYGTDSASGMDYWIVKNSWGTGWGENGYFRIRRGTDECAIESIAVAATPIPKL

SMILES: CC(=O)c1cc([N+](=O)[O-])c(Sc2cccc(Cl)c2Cl)s1 [Compound P005091, reference compound]
cell cycle distribution [4]: decrease in cells in G1 phase and an increase in G2

SMILES: CC(C)C[C@H](NC(=O)[C@H](Cc1ccccc1)NC(=O)c1cnccn1)B(O)O [bortezomib, reference compound]
GFP fluorescence [5]: Only bortezomib treatment caused an increase in GFP fluorescence; also recorded: increased
stabilization of the HMW-Ub pool [6]: failed to stabilize the HMW-Ub pools
GFP fluorescence of G76V ubiquitin-GFP [7]: decreases

SMILES: NCc1ccc(OC(=O)Oc2ccccc2)cc1 [Compound C4, 4-(aminomethyl)phenyl(phenyl)carbonate]
stabilization of the HMW-Ub pool [6]: prevented decomposition of the HMW-Ub pool
inhibition of desumoylation [10]: Neither G5 nor C4 inhibited desumoylation

Second part, led by results:

effect on proteasome activity [1]: no effect on proteasome activity
SMILES: O=C(NCc1ccc(N=C=S)cc1)OCc1ccccc1 [TU49]
apoptosis of K562 cells [2]: induce apoptosis of K562 cells
Bcr-Abl kinase level [3]: cause degradation of Bcr-Abl kinase

effect on proteasome activity [1]: no effect on proteasome activity
EC50 [8]: 11 ± 4 µM
SMILES: CC(C)(C)OC(=O)NCCc1ccc(N=C=S)cc1 [TU46]

inhibition of cathepsin C [9]: inhibits cathepsin C
SMILES: CC(C)(C)OC(=O)NCc1ccc(OC(=O)Oc2ccccc2)cc1 [compound 14]
